In US9096560B2, “5-heterocyclylalkyl-3-hydroxy-2-phenylcyclopent-2-enones as herbicides” (Syngenta Limited, priority 2008, dated 2015) one finds pest or weed control data, which are given here for 8 molecules.

Common to all, as to assay type: in vivo
In experiment [1] the test system is Lolium perenne (LOLPE). The experiment in a line: Example B pre-emergence herbicidal test, LOLPE. The conditions noted are these: Lolium perenne, 312 h, rate 250 g/ha, evaluated after 13 days, 100=total damage to plant, 0=no damage to plant. The gist of the method:
(§1)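 After sowing in standard soil, pots spent a day in the glasshouse (24/16° C, 14 h photoperiod, 65% humidity) before spraying with compound in acetone/water 50:50 with 0.5% Tween 20. Watering followed twice a day, and plants were evaluated 13 days on, with 100 meaning complete damage.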

Experiment [2] relates to Alopecurus myosuroides (ALOMY). Kind of experiment: Example B pre-emergence herbicidal test, ALOMY. As to conditions: Alopecurus myosuroides, 312 h, rate 250 g/ha, evaluated after 13 days, 100=total damage to plant, 0=no damage to plant. The gist of the method: as §1
Experiment [3] relates to Echinochloa crus-galli (ECHCG). The experiment in a line: Example B pre-emergence herbicidal test, ECHCG. As to conditions: Echinochloa crus-galli, 312 h, rate 250 g/ha, evaluated after 13 days, 100=total damage to plant, 0=no damage to plant. A digest of the protocol: as §1
The test system of experiment [4] is Avena fatua (AVEFA). Kind of experiment: Example B pre-emergence herbicidal test, AVEFA. The conditions noted are these: Avena fatua, 312 h, rate 250 g/ha, evaluated after 13 days, 100=total damage to plant, 0=no damage to plant. A digest of the protocol: as §1
Experiment [5] deals with Lolium perenne (LOLPE). Kind of experiment: Example B post-emergence herbicidal test, LOLPE. The conditions noted are these: Lolium perenne, 312 h, rate 250 g/ha, evaluated after 13 days, scale 0-100, read-out: Post-emergence activity LOLPE (100=total damage to plant; 0=no damage to plant). A digest of the protocol:
(§2)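 Damage was rated visually 13 days after treatment, where 100 meant total plant damage and 0 none. Treatment was a spray of aqueous solution (acetone/water 50:50, 0.5% Tween 20) applied to plants cultivated 8 days from seed under controlled glasshouse conditions.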

The subject of experiment [6] is Alopecurus myosuroides (ALOMY). Kind of experiment: Example B post-emergence herbicidal test, ALOMY. As to conditions: Alopecurus myosuroides, 312 h, rate 250 g/ha, evaluated after 13 days, scale 0-100, read-out: Post-emergence activity ALOMY (100=total damage to plant; 0=no damage to plant). The gist of the method:
as §2

Experiment [7] has as its system Echinochloa crus-galli (ECHCG). Kind of experiment: Example B post-emergence herbicidal test, ECHCG. The conditions noted are these: Echinochloa crus-galli, 312 h, rate 250 g/ha, evaluated after 13 days, scale 0-100, read-out: Post-emergence activity ECHCG (100=total damage to plant; 0=no damage to plant). The gist of the method: as §2
Experiment [8] concerns Avena fatua (AVEFA). Kind of experiment: Example B post-emergence herbicidal test, AVEFA. As to conditions: Avena fatua, 312 h, rate 250 g/ha, evaluated after 13 days, scale 0-100, read-out: Post-emergence activity AVEFA (100=total damage to plant; 0=no damage to plant). The gist of the method:
as §2

Turning to `Cc1cc(C)c(C2C(=O)CC(CC3CCN(C(=O)C(C)(C)C)C3)C2=O)c(C)c1` (stereo not shown) [Compound T143], the pest or weed control at 250 g/ha in experiment [1] turned out to be 100%; in experiment [2], 80%; in experiment [3], 100%; in experiment [4], 50%; in experiment [5], 60%; in experiment [6], 60%. In addition, the pest or weed control at 250 g/ha in experiment [7] was found to be 60%; in experiment [8], 80%.

As for `CC(C)=CC(=O)N1CCC(CC2CC(=O)C(c3c(C)cc(C)cc3C)C2=O)C1` (stereo not shown) [Compound T144], the pest or weed control at 250 g/ha in experiment [1] is 70%; in experiment [2], 80%; in experiment [3] it was 90%; in experiment [4], 70%; in experiment [5], 80%; in experiment [6], 80%. The values for the pest or weed control at 250 g/ha in experiment [7] and in experiment [8] were 80% and 90%, respectively.

Consider `Cc1cc(C)c(C2C(=O)CC(CC3CCN(C(=O)C(C)(C)CCl)C3)C2=O)c(C)c1` (stereo not shown) [Compound T145], for which the pest or weed control at 250 g/ha in experiment [1] worked out at 50%; in experiment [2], 60%; in experiment [3] it was 20%; in experiment [4], 30%; in experiment [5] it was 40%; in experiment [6], 60%. Further, the pest or weed control at 250 g/ha in experiment [7] worked out at 30%; in experiment [8], 50%.

In the case of `Cc1cc(C)c(C2C(=O)CC(CC3CCN(C(=O)c4cccs4)C3)C2=O)c(C)c1` (stereo not shown) [Compound T146], the pest or weed control at 250 g/ha came to 90% in experiment [1]; 70% in experiment [2]; 70% in experiment [3]; 50% in experiment [4]; 80% in experiment [5]; 80% in experiment [6]. For the same molecule, the values for the pest or weed control at 250 g/ha in experiment [7] and in experiment [8] were 70% and 90%, respectively.

In the case of `Cc1cc(C)c(C2C(=O)CC(CC3CCN(C(=O)c4ccco4)C3)C2=O)c(C)c1` (stereo not shown) [Compound T147], the pest or weed control at 250 g/ha in experiment [1] amounted to 30%; in experiment [2] it was 50%; in experiment [3], 40%; in experiment [4], 10%; in experiment [5], 40%; in experiment [6], 60%. Moreover, the pest or weed control at 250 g/ha in experiment [7] amounted to 50%; in experiment [8], 70%.

Consider `Cc1cc(C)c(C2C(=O)CC(CC3CCN(C(=O)c4c(C)noc4C)C3)C2=O)c(C)c1` (stereo not shown) [Compound T148], for which the pest or weed control at 250 g/ha worked out at 50% in experiment [1]; 70% in experiment [2]; 30% in experiment [3]; 40% in experiment [4]; 70% in experiment [5]; 80% in experiment [6]. In addition, the pest or weed control at 250 g/ha turned out to be 60% in experiment [7] and 100% in experiment [8].

On to `COc1ccc(CC2C(=O)C(c3c(C)cc(C)cc3C)C(=O)C2CC2CCOC2)cc1` (stereo not shown) [Compound T149], for which the pest or weed control at 250 g/ha is 20% in experiment [1]; 30% in experiment [2]; 30% in experiment [3]; 10% in experiment [4]; 40% in experiment [5]; 30% in experiment [6]. For the same molecule, the values for the pest or weed control at 250 g/ha in experiment [7] and in experiment [8] were 20% and 40%, respectively.

Take `Cc1cc(C)c(C2C(=O)C(Cc3ccccc3)C(CC3CCOC3)C2=O)c(C)c1` (stereo not shown) [Compound T151]: the pest or weed control at 250 g/ha is 30% in experiment [1]; 20% in experiment [2]; 40% in experiment [3]; 10% in experiment [4]; 20% in experiment [5]; 30% in experiment [6]. The pest or weed control at 250 g/ha in experiment [7] came to 40%; in experiment [8] it was 10%.
